Source: PMC12040169 (PLOS Biology, 2025)

assay: in vitro; conditions: human, hela cells, % viability

Row | Structure (SMILES) | viability at 28.5 h, 10 µM [%]
1 | NC(=O)c1cc(Cc2ccccc2)sc1NC(=O)c1cccnc1 [CBK268168] | 96.2
2 | S=C(NCCN1CCCCC1)NCc1ccco1 [CBK268171] | 107
3 | O=C(Nc1ccc(S(=O)(=O)NCCc2ccccc2)cc1)c1ccncc1 [CBK268172] | 90.3
4 | O=S(=O)(c1cccc2nsnc12)N1CCN(C2CCCCC2)CC1 [CBK268173] | 96.9
5 | CN1CCN(NC(=O)COc2ccc(Br)cc2Cl)CC1 [CBK268174] | 92.6
6 | COC(=O)c1cc(-c2ccccc2)sc1NC(=O)c1cnccn1 [CBK268175] | 93.5
7 | O=C(O)C1CC=CCC1C(=O)Nc1ccc(S(=O)(=O)N2CCCc3ccccc32)cc1 (stereo not shown) [CBK268179] | 94.8
8 | O=C(NCc1ccco1)c1c(NC(=O)C2CCCO2)sc2c1CCC2 (stereo not shown) [CBK268180] | 94.4
9 | Cc1sc(NC(=O)c2ccc3c(c2)OCCO3)c(C(=O)NCc2cccnc2)c1C [CBK268181] | 90.8
10 | CCOc1cccc(C(=O)NN2CCN(C)CC2)c1 [CBK268184] | 97.7
11 | O=C(Nc1ccc(S(=O)(=O)NCc2ccccc2)cc1)Nc1ccc2c(c1)OCO2 [CBK268186] | 95.1
12 | CS(=O)(=O)N(CC(=O)Nc1ccc(S(=O)(=O)N2CCCCC2)cc1)c1ccc2c(c1)OCO2 [CBK268189] | 96.4
13 | N#Cc1c(C(F)(F)F)cc(-c2ccccc2)nc1SCCC(=O)Nc1ccccc1O [CBK268191] | 103
14 | COc1ccc(C2CC(c3ccccc3)=NN2c2ccc(S(N)(=O)=O)cc2)cc1OC (stereo not shown) [CBK268193] | 107
15 | NS(=O)(=O)c1ccc(NCc2cc(Cl)ccc2OCc2ccc(F)cc2)cc1 [CBK268196] | 87.2
16 | COc1ccc([N+](=O)[O-])cc1N(CC(=O)Nc1cccc2ccccc12)S(C)(=O)=O [CBK268197] | 84.2
17 | Cc1c(Cl)cccc1NC(=O)CSCc1cc(=O)[nH][nH]1 [CBK268199] | 98.1
18 | Cc1ccc(-c2cc(C(=O)NCCCn3ccnc3)no2)cc1 [CBK268200] | 102
19 | CCn1c(SCC(=O)Nc2ccccc2[N+](=O)[O-])nnc1-c1cc(Br)ccc1O [CBK268201] | 101
20 | NS(=O)(=O)c1ccc(NC(=O)CSc2ccc3ccccc3c2)cc1 [CBK268203] | 89.8
21 | c1csc(-c2nn3c(Cn4nnc5ccccc54)nnc3s2)c1 [CBK268204] | 87.7

Row | Structure (SMILES) | viability at 28.5 h, 10 µM [%]
22 | COc1cc(NC(=O)Cc2cccc3ccccc23)c(C(=O)O)cc1OC [CBK268206] | 99.9
23 | CN1CCN(CC(=O)Nc2sc3c(c2C(=O)NCc2ccccc2)CCCC3)CC1 [CBK268207] | 102
24 | Cc1cc(NC(=O)c2nn3c(C(F)(F)F)cc(-c4ccccc4)nc3c2Cl)nn1CC(=O)N1CCOCC1 [CBK268209] | 105
25 | Cc1ccc(S(=O)(=O)NCCOc2ccccc2)c(C)c1NS(C)(=O)=O [CBK268210] | 92.9
26 | O=C(CSc1ncn(-c2ccccc2)n1)Nc1ccc2[nH]c(=O)[nH]c2c1 [CBK268212] | 106
27 | Cc1cc2c(N3CCN(Cc4nc5ccccc5[nH]4)CC3)ncnc2s1 [CBK268213C] | 101
28 | Cc1ccc(NS(=O)(=O)c2cc(C(=O)Nc3cccc(N(C)S(C)(=O)=O)c3)ccc2C)c(C)c1 [CBK268220] | 92.7
29 | CCN1CCN(C(=O)CN(c2ccccc2)S(=O)(=O)N(C)C)CC1 [CBK268222] | 113
30 | CCN1CCN(C(=O)c2ccc(C)c(S(=O)(=O)Nc3cccc(C)c3)c2)CC1 [CBK268226] | 109
31 | O=C(Cc1cc(C(=O)O)c2ccccc2n1)Nc1ccccc1 [CBK268227] | 96.3
32 | O=C(Cc1ccc(Br)cc1)Nc1cc(C(=O)O)cc(C(=O)O)c1 [CBK268228] | 88.8
33 | Cc1ccc(Cl)cc1N1CCN(C(=O)COc2ccc(S(=O)(=O)Nc3ccc(F)cc3)cc2)CC1 [CBK268229] | 92.1
34 | COc1ccc(S(=O)(=O)N2CCCC(C(=O)NCc3ccc4c(c3)OCO4)C2)cc1Cl (stereo not shown) [CBK268230] | 89.1
35 | c1ccc(C2=Nn3c(Cn4nnc5ccccc54)nnc3SC2)cc1 [CBK268232] | 91.7
36 | Nn1c(Cn2nnc3ccccc32)n[nH]c1=S [CBK268233] | 111
37 | CN(C)CCn1c(C(=O)O)cc2ccccc21 [CBK268234C] | 110
38 | c1nc(NCCCN2CCOCC2)c2c3c(sc2n1)CCCCC3 [CBK268236] | 91.2
39 | O=C1CCCN1c1ccc(S(=O)(=O)N2CCN(c3ccccn3)CC2)cc1 [CBK268237] | 84.5
40 | Cc1cccc(-c2noc(CCC(=O)NCC3CCCO3)n2)c1 (stereo not shown) [CBK268241] | 118
41 | Cc1cc(=O)[nH]c(SCCC(=O)O)n1 [CBK268242] | 106
42 | O=C(COc1ccc(S(=O)(=O)N2CCCC2)cc1Cl)NCC1CCCO1 (stereo not shown) [CBK268243] | 86.6

Row | Structure (SMILES) | viability at 28.5 h, 10 µM [%]
43 | O=S(=O)(NCC(c1ccccc1)n1cc(-c2ccccc2)nn1)c1ccccc1 (stereo not shown) [CBK268244] | 85.2
44 | COc1ccc(-c2noc(CSc3nnc(-c4ccncc4)n3C)n2)cc1 [CBK268245] | 96.8
45 | O=C(CSc1nc2ccccc2c(=O)[nH]1)Nc1ccc(Cl)c(C(=O)O)c1 [CBK268246] | 103
46 | CC(=O)NCCc1nc2ccc(NC(=O)Cn3nc(C)c4ccccc4c3=O)cc2n1C [CBK268249] | 111
47 | Brc1cccc(CSc2nnc(COc3ccccc3)n2Cc2ccccc2)c1 [CBK268250] | 113
48 | O=C(COc1ccc(NS(=O)(=O)c2ccc3oc4cc([N+](=O)[O-])ccc4c3c2)cc1)N1CCOCC1 [CBK268252] | 100
49 | CCN(CC)S(=O)(=O)c1ccc(Nc2nc3ccc(Cl)cc3n3cnnc23)cc1 [CBK268259] | 87.6
50 | O=C(CSc1ncn(-c2ccccc2)n1)Nc1cc(Cl)cc(Cl)c1 [CBK268261] | 92
51 | Cn1c(CN2CCN(C(=O)NC3CCCCC3)CC2)nc2cc([N+](=O)[O-])ccc21 [CBK268266] | 97.1
52 | C[S+]([O-])CCC(NS(=O)(=O)c1ccccc1)C(=O)O (stereo not shown) [CBK268267] | 93.2
53 | Cc1cc(/C=C(/C#N)c2cccc(F)c2)c(C)n1-c1ccc(S(N)(=O)=O)cc1 [CBK268268] | 99.9
54 | O=[N+]([O-])c1nn(-c2ccc(Cl)cc2)[n+]([O-])c1NCc1ccccn1 [CBK268270] | 96.6
55 | c1ccc(-c2nn3c(Cn4nnc5ccccc54)nnc3s2)cc1 [CBK268271] | 106
56 | Cc1cc(S(=O)(=O)NCc2ccccc2)ccc1OCC(=O)N1CCN(C)CC1 [CBK268274] | 86.4
57 | Cn1cnnc1SCC(C)(C)NS(=O)(=O)c1ccccc1 [CBK268276] | 96.4
58 | O=C(NCCSCc1ccco1)Nc1cccc(Cl)c1 [CBK268277] | 99.2
59 | CCOc1ccc(NC(=O)CSc2nc3nc(C)cc(C)n3n2)cc1 [CBK268278] | 107
60 | CC(C)(CSc1ncccn1)NS(=O)(=O)c1ccccc1 [CBK268282] | 88.3
61 | O=C(O)c1ccc2c(c1)C(=O)N(c1nc(-c3cccnc3)n[nH]1)C2=O [CBK268284] | 100
62 | O=C(Cc1cccc2ccccc12)Nc1ccc(Br)cc1C(=O)O [CBK268286] | 99.2
63 | CC(C)(Oc1ccc(Br)cc1)C(=O)NCCOc1ccccc1 [CBK268287] | 114

Row | Structure (SMILES) | viability at 28.5 h, 10 µM [%]
64 | CS(=O)(=O)Nc1ccc(C(=O)Nc2ccc(S(=O)(=O)N3CCCCCC3)cc2)cc1 [CBK268288] | 107
65 | O=C(CSc1nnc(Cc2cccs2)n1-c1ccccc1)c1c[nH]c2ccccc12 [CBK268290] | 88
66 | Cc1ccc(-c2nc3ncccc3o2)cc1NC(=S)NC(=O)c1ccc(-c2cccc([N+](=O)[O-])c2)o1 [CBK268294] | 102
67 | Cc1ccc(-n2cnnn2)c(S(=O)(=O)N2CCOCC2)c1 [CBK268297] | 102
68 | O=C(CSc1nnc(Nc2ccccc2)n1-c1ccccc1)Nc1ccc2c(c1)COC2=O [CBK268298] | 105
69 | CCc1cc2c(=O)c(-c3nc(C)cs3)c(C)oc2cc1OCc1ccc([N+](=O)[O-])cc1 [CBK268305] | 101
70 | O=S(=O)(NCc1ccc2c(c1)OCO2)c1ccc2c(c1)oc1ccccc12 [CBK268308] | 104
71 | CCCn1c(Nc2nc3ccccc3n2C)nc2ccccc21 [CBK268310] | 85.7
72 | COc1cc(NC(=O)c2cc3nc(-c4cccs4)cc(C(F)(F)Cl)n3n2)c(C(C)=O)cc1OC [CBK268312] | 100
73 | O=C(NC(C(=O)O)c1ccccc1)NC12CC3CC(CC(C3)C1)C2 (stereo not shown) [CBK268313] | 109
74 | O=[N+]([O-])c1nn(-c2ccc3c(c2)OCCO3)[n+]([O-])c1NCCN1CCN(c2ccccc2F)CC1 [CBK268314] | 109
75 | CCOc1ccc(-n2c(SCc3nc(-c4ccc(C)cc4)no3)nnc2-c2ccncc2)cc1 [CBK268315] | 98.3
76 | CCc1ccc2occ(CC(=O)Nc3ccc(C(=O)OC)cc3)c2c1 [CBK268318] | 105
77 | Clc1ccc(-c2nn3c4cc(N5CCNCC5)ccc4nc3c3ccccc23)cc1 [CBK268319] | 102
78 | O=C(CSc1nc(Nc2ccccc2)nc(N2CCOCC2)n1)Nc1ccc2c(c1)OCO2 [CBK268320] | 96.5
79 | Cn1c(CN2CCN(S(=O)(=O)c3ccccc3)CC2)nc2cc([N+](=O)[O-])ccc21 [CBK268321] | 102
80 | CC(CO)(CO)NCc1ccc(-c2ccccc2)cc1 [CBK268325C] | 78.9
81 | O=C(COc1ccc(S(=O)(=O)N2CCCCC2)cc1)NCc1cccnc1 [CBK268328] | 97.6
82 | COc1ccccc1CC(=O)Nc1ccc(-c2nnc(-c3ccc(C)cc3)o2)cc1 [CBK268329] | 105
83 | c1ccc(CCc2nn3c(Cn4cnc5ccccc54)nnc3s2)cc1 [CBK268332] | 84.2
84 | COc1ccc(-c2nnc(SCC(=O)c3ccc(C)o3)o2)cc1 [CBK268334] | 88

same assay, conditions: human, hela cells, % viability, bulk resorufin, single well

Row | Structure (SMILES) | viability at 28.5 h, 10 µM [%]
85 | CC(C)NC(=O)Cn1cc(C(=O)COc2ccccc2)c2ccccc21 [CBK268317] | 82.6
